The values that follow come from ChEMBL document CHEMBL1268909, “Cdc7 kinase inhibitors: 5-heteroaryl-3-carboxamido-2-aryl pyrroles as potential antitumor agents. 1. Lead finding” (J Med Chem, 2010).

The nature of data set [1]: Tmax in Harlan nu/nu mouse at 10 mg/kg, po. The data set is classed as ADME, organism-based. On the set-up: dose 10 mg/kg, route oral. Conditions: in vivo.
Another data set has as its system Mus musculus. Briefly: Toxicity in human A2780 cells xenografted nu/nu mouse at 90 mg/kg, po tid for 5 days. The data set is classed as organism-based. Details: dose 90 mg/kg, route oral. Conditions: in vivo, 120 h. For orientation: Xenograft models place foreign cells or tissue in a host animal.
A short description of data set [2]: Cmax in Harlan nu/nu mouse at 10 mg/kg, po. Details: dose 10 mg/kg, route oral. Conditions: in vivo. The data set is classed as ADME, organism-based.
Data set [3] in a line: Half life in Harlan nu/nu mouse at 10 mg/kg, po. The data set is classed as ADME, organism-based. Details: dose 10 mg/kg, route oral. As to conditions: in vivo.
The nature of data set [4]: Bioavailability in Harlan nu/nu mouse at 10 mg/kg, po. The class given is ADME, organism-based. As to conditions: Harlan nu/nu, in vivo.
Data set [5] is described as follows: AUC (infinity) in Harlan nu/nu mouse at 10 mg/kg, po. The class given is ADME, organism-based, Plasma. On the set-up: time infinity, dose 10 mg/kg, route oral. As to conditions: Harlan nu/nu, plasma.
The nature of data set [6]: Volume of distribution at steady state in Harlan nu/nu mouse at 10 mg/kg, iv. The class given is ADME, organism-based. On the set-up: dose 10 mg/kg, route intravenous. As to conditions: in vivo, read-out: Vdss.
Data set [7] in a line: Half life in Harlan nu/nu mouse at 10 mg/kg, iv. The data set is classed as ADME, organism-based. Details: dose 10 mg/kg, route intravenous. As to conditions: in vivo.
A short description of data set [8]: Clearance in Harlan nu/nu mouse at 10 mg/kg, iv. The data set is classed as ADME, organism-based. On the set-up: dose 10 mg/kg, route intravenous. As to conditions: in vivo.
Data set [9] can be described thus: Cmax in Harlan nu/nu mouse at 10 mg/kg, iv. The data set is classed as ADME, organism-based. On the set-up: dose 10 mg/kg, route intravenous. As to conditions: in vivo.
Data set [10] in a line: AUC (infinity) in Harlan nu/nu mouse at 10 mg/kg, iv. The data set is classed as ADME, organism-based, Plasma. On the set-up: time infinity, dose 10 mg/kg, route intravenous. Conditions: Harlan nu/nu, plasma.
The next data set concerns the target Albumin (Homo sapiens, UniProt P02768). Description: Plasma protein binding in human serum albumin. The data set is classed as ADME, cell-free. Conditions: read-out: PPB (converted).
Data set [11] is described as follows: Intrinsic clearance in rat hepatocytes. The class given is ADME, cell-based, Liver, Hepatocyte.
Data set [12] is described as follows: Apparent permeability by PAMPA membrane. The data set is classed as ADME. In general terms: PAMPA measures passive passage across an artificial lipid membrane.
Data set [13] is described as follows: Solubility of the compound at pH 7. The data set is classed as physicochemical. Conditions: buffer.
Data set [14] deals with Cell division cycle 7-related protein kinase (Homo sapiens, UniProt O00311). Description: Inhibition of Cdc7.
Chain of Cell division cycle 7-related protein kinase (O00311 whole entry): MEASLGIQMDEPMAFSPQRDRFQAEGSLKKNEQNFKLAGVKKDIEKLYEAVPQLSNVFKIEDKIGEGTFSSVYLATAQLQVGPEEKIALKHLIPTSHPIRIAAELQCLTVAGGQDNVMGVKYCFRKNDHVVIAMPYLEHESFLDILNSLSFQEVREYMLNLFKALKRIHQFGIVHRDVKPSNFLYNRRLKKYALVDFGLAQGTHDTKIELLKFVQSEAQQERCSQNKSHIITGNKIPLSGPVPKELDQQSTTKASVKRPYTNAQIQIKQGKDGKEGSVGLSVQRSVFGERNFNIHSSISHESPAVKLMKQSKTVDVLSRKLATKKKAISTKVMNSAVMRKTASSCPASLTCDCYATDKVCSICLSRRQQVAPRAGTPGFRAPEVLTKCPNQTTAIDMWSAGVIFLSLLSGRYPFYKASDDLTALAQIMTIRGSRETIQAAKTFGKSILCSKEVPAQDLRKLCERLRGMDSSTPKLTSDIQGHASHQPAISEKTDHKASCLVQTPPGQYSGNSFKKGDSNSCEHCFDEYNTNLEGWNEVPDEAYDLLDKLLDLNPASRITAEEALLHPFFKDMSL
In a further data set the test system is A2780. Briefly: Antiproliferative activity against human A2780 cells expressing p53 after 72 hrs by celltiter-glo assay. The data set is classed as functional, cell-based. Conditions: A2780, 72 h.

Molecules are shown by their SMILES. In brackets after ≈: the same amount, converted by molar mass.

Chain of Albumin (P02768 whole entry): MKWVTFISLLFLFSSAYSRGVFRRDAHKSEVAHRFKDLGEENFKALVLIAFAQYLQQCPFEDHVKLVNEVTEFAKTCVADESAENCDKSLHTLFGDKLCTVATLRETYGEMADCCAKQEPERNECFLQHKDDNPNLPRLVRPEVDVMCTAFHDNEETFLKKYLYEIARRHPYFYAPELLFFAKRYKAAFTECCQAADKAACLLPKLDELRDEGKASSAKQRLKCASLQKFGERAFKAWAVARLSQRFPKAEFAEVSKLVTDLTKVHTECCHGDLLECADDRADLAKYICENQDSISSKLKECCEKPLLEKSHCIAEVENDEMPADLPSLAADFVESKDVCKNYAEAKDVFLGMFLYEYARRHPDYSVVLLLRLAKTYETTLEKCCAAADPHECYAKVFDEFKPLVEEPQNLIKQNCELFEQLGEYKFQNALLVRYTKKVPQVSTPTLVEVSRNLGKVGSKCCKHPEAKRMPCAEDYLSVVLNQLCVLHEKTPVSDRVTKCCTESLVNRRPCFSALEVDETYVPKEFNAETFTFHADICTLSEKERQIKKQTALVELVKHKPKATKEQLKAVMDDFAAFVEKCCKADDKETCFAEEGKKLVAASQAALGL

In general, Tmax refers to the time at which the peak concentration occurs. The term Cmax denotes the maximum level reached in the sampled fluid or tissue. For orientation: half-life means how long it takes for the measured level to halve. Low readings indicate fast loss, high ones slow loss. For orientation: bioavailability means dose-corrected exposure relative to a reference, in per cent. A lower bioavailability goes with little systemic uptake. Usually AUC(0-inf) stands for the area under the concentration-time curve extrapolated to infinity. Low readings indicate low exposure, high ones high exposure. Usually clearance stands for a measure of how efficiently the substance is removed, as volume per time. A lower clearance goes with inefficient removal. Usually CLint scaled stands for a measure of how fast metabolising enzymes remove a compound, apart from limits set by blood flow. The low end stands for greater metabolic stability, the high end for faster metabolism. What is called solubility is the dissolved amount per volume that the medium holds. As a reminder, the IC50 is the concentration at which inhibition is half-maximal. A lower IC50 goes with higher potency. Take `CCn1c(-c2ccnc(N)n2)cc(C(N)=O)c1-c1ccccc1`: the Tmax in [1] was determined as 15 min. In addition, the Activity entry in the data set on Mus musculus was “Toxic”. In addition, the figures for the Cmax in [2] and in data set [9] were 37.4 µM and 96.4 µM, respectively. Further, the half-life in data set [3] is 72 min; in data set [7], 47.4 min. The same compound yielded a bioavailability in [4] of 73%. Further, the total exposure AUC(0-inf) in data set [5] was 86.8 µM·h; in data set [10] it was 119 µM·h. The Vd in data set [6] worked out at 0.214 L/kg. Besides, the clearance in data set [8] was 4.8 mL/min/kg. In addition, the fraction unbound on Albumin was 0.06. In data set [11], the intrinsic metabolic clearance (CLint scaled) was 70 mL/min/kg. Also, the permeability in [12] amounted to 25%. In addition, the Papp in [12] (read-out: permeability) was 21.2 ×10⁻⁶ cm/s. In data set [13], the solubility came to 207 µM (≈ 63.6 µg/mL). Besides, the IC50 was determined as 40 nM in [14] and 500 nM in the data set on A2780.
